Experimental data as given in US8133861B2, “Systemic purine administration: modulating axonal outgrowth of central nervous system neurons” (Alseres Pharmaceuticals, Inc., priority 2008, dated 2012).
Entries after “also recorded” stand apart in the source; their conditions may differ.

What was measured:
[1] = Brain (medial prefrontal cortex) microdialysate inosine during intravenous inosine infusion in rats; assay type: in vivo, rat; details: for CNS microdialysate inosine, percent of baseline / CNS microdialysate inosine, maximal increase (percent of baseline) / time to maximal increase of CNS microdialysate inosine: rat
Procedure: (§1) Two groups of three rats were dosed intravenously with a total of 4 different concentrations of inosine and vehicle, providing within-subjects comparisons. Rats were anesthetized and each was surgically implanted above the medial prefrontal cortex (A-P +3.2 and M-L +1.0 from Bregma, D-V −2.0 from the skull surface) with an intracerebral guide cannula that was replaced after three days by a microdialysis probe. The microdialyses probes were continually flushed with artificial cerebrospinal fluid (aCSF). Catheters were inserted into the jugular vein for inosine dosing and into the femoral artery for blood collection.
(§2) Inosine formulated in aqueous bicarbonate buffer (pH 9.2) was administered by intravenous infusion for up to two hours to two groups of rats (N=3 per group) and the microdialysis probes were perfused with aCSF at a rate of 0.015 mL/minute. One group received nominal dose rates of 0 (vehicle), 100, and 300 mg/kg/hour, and the other group received nominal dose rates of 0, 500, and 700 mg/kg/hour. Each nominal infusion rate was 10 mL/kg/hour and was separated by a 2-day washout period.
(§3) Blood samples and brain microdialysates were collected prior to each dose to establish basal concentrations of inosine, and for a period of 2 hrs after each dose to determine the percent of change (increase, decrease, or none) relative to basal. Microdialysate and blood plasma inosine concentrations were measured using an LC/MS/MS assay. The lower limit of quantitation of the rat plasma analysis and the CNS microdialysate was 0.25 ng/mL.
The subjects were naïve, male, Sprague-Dawley rats procured for this study from Harlan Spraque Dawley, Inc. (Indianapolis, Ind.). All rats selected for surgeries were quarantined, inspected and deemed acceptable for surgery by technicians qualified to make this assessment. Intracerebral guide cannulae were surgically implanted above the medial prefrontal cortex (mPFC). Rats were provided with a single dose of analgesic immediately after surgery to alleviate discomfort. Animals were inspected frequently during post-surgical recovery. After 3 days, the stylet in the intracerebral guide cannula was replaced with a microdialysis probe.
(§4) All study subjects were dosed via JVC catheters without handling. Prior to collecting pre-dose microdialysates, glass vials were loaded with the appropriate drug solution and connected to an Empis system. All rats received the doses of inosine they were intended to receive, as the infusion rate was ˜50 μl/min over the 2 hr dosing period. Two days later, all rats received the doses of inosine they were intended to receive, as the infusion rate was ˜50 μl/min over the 2 hr dosing period. All rats then received reduced doses of inosine, as the infusion rat was reduced to ˜40 μl/min over a 2 hr dosing period.
(§5) Samples of CNS microdialysate (0.03 mL) and arterial blood (0.15 mL) were taken for analysis of inosine concentration before infusion, and at specified times after the start of the infusions (20, 40, 60, 80, and 120 minutes).
Changes in inosine concentrations are expressed as percent of baseline in order to compare changes in inosine concentrations between treatments.
(§6) Changes in inosine concentrations (percent of baseline) were determined by dividing a particular post-dose inosine concentration (ng/mL) by the average of 4 pre-dose (baseline) inosine concentrations (ng/mL) and multiplying this value by 100%. Where plasma inosine (μg/mL) values appeared to reach steady-state by inspection of the last three time points, approximately values for clearance (L/kg/hour) were obtained from the relationship, clearance=infusion rate (mg/kg/hour)/steady-state concentration (mg/L). Mean percent of baseline changes in inosine concentrations were plotted for each treatment condition.

stroke = experiment: Treatment of a subject with an onset of stroke with inosine (Examples 6, 10); assay type: in vivo; details: inosine (50 mM) and NaCl (0.15M), 1 g/kg/day
Procedure: A subject with an onset of stroke, is treated with an intravenous infusion of a solution of inosine (50 mM) and NaCl (0.15M) at a rate of 1 g/kg/day. […] A subject with an onset of stroke, is treated with an subcutaneous injection of a solution of inosine (50 mM) and NaCl (0.15M) at a rate of 1 g/kg/day.

[2] = Inosine prototype formulations: approximate potency, solubility and precipitation; assay type: physicochemical
Procedure: A number of inosine formulations were examined. Preparatory steps were as follows:
Inosine protype formulations were prepared by adding inosine drug substance to tare vials containing about 3-5 mL of aqueous solutions containing various pharmaceutical excipients in various concentrations. […] Common I.V. solutions such as phosphate buffered saline, normal saline and 5% dextrose in water are noted.
Megulmine is known to function both as a solubilizing and alkalizing agent, thus precluding the need for a buffering species which would unfavorably increase ionic strength in the formulation.
The composition of each formulation is provided in Table I. The pH of the formulation is reported for those formulations for which it was tested.

traumatic brain injury = experiment: Treatment of a subject with a traumatic brain injury with inosine (Examples 8, 12); assay type: in vivo; details: inosine (50 mM) and NaCl (0.15M), 1 g/kg/day
Procedure: A subject with a traumatic brain injury, is treated with an intravenous infusion of a solution of inosine (50 mM) and NaCl (0.15M) at a rate of 1 g/kg/day. […] A subject with a traumatic brain injury, is treated with subcutaneous injection of a solution of inosine (50 mM) and NaCl (0.15M) at a rate of 1 g/kg/day.

[3] = Plasma inosine during 2-hr intravenous inosine infusion in rats (LC/MS/MS); assay type: in vivo, rat; details: for clearance: male, Sprague-Dawley, plasma, iv, infusion rate/steady-state concentration; for clearance / Plasma inosine concentration, maximal value / Steady-state mean plasma inosine level: rat
Procedure: as §1, §2, §3, §4, §5, §6

spinal cord injury = experiment: Treatment of a subject with a spinal cord injury with inosine (Examples 7, 11); assay type: in vivo; details: inosine (50 mM) and NaCl (0.15M), 1 g/kg/day
Procedure: A subject with a spinal cord injury, is treated with an intravenous infusion of a solution of inosine (50 mM) and NaCl (0.15M) at a rate of 1 g/kg/day. […] A subject with a spinal cord injury, is treated with an subcutaneous injection of a solution of inosine (50 mM) and NaCl (0.15M) at a rate of 1 g/kg/day.

[4] = test system: central nervous system injury; experiment: Treatment of a subject with central nervous system injury with inosine (Examples 5, 9, 13); assay type: in vivo
Procedure: A subject with central nervous system injury, is treated with an intravenous infusion of a solution of inosine (50 mM) and NaCl (0.15M) at a rate of 1 g/kg/day. […] A subject with central nervous system injury, is treated with a subcutaneous injection of a solution of inosine (50 mM) and NaCl (0.15M) at a rate of 1 g/kg/day. […] A subject with central nervous system injury is treated with intravenous infusion of a solution of inosine in a formulation of 0.1% sodium bicarbonate 70 mg/mL inosine, pH9.2. The 250 ml of the inosine formulation is infused over a two hour period. This procedure is repeated for 14 days.

[5] = test system: rat hemisection model of spinal cord injury; experiment: Rat dorsal hemisection model of spinal cord injury, BBB score of locomotor function; assay type: in vivo; details: approximately 2 mg/kg/hr
Procedure: This example considers intravenous infusion of inosine in rodent model of acute spinal cord injury. Rats were anesthetized and each was subjected to laminectomy in the thoracic region of the spinal cord, followed by dorsal hemisection of the spinal cord that included severance of the cortical spinal tract as a model of spinal cord injury (SCI). These rats were divided into two groups: one group was dosed by continuous intravenous infusion of 70 mg/mL (261 mM) inosine formulated in 0.1% sodium bicarbonate solution, pH approximately 9.2, for four weeks, and the other group was dosed by continuous intravenous infusion with 0.1% sodium bicarbonate vehicle control for four weeks. The infusion rate was 10 microliters per hour for inosine (approximately 2 mg/kg/hr) and vehicle dosing, and the infusions were started immediately after the SCI. In this regard it is noted that dosing at 2 mg/kg/hr represents a dose of about 48 mg/kg/day. In a 70 kg subject this is equivalent to about 3-4 g/day. Attention is drawn to daily doses from about 1 g/day to about 10 gm/day with attention being drawn to doses of about 2 g/day and about 5 day.
Rats were evaluated one day post-SCI to verify completeness of the lesion, and then weekly for functional status by assessment using the Basso-Beattie-Bresnahan (BBB) score of locomotor function as judged by hind-limb function and forelimb:hind-limb coordination. […]

Structure (SMILES): OC[C@H]1O[C@@H](n2cnc3c(O)ncnc32)[C@H](O)[C@@H]1O [inosine]
- CNS microdialysate inosine, percent of baseline ([1]; i.v. infusion 100 mg/kg/hour): 113-146%
- CNS microdialysate inosine, percent of baseline ([1]; i.v. infusion 300 mg/kg/hour): 96-116%
- CNS microdialysate inosine, maximal increase (percent of baseline) ([1]; i.v. infusion 500 mg/kg/hour): 526-632%
- time to maximal increase of CNS microdialysate inosine ([1]; i.v. infusion 500 mg/kg/hr): ≤ 45 min
- CNS microdialysate inosine, maximal increase (percent of baseline) ([1]; i.v. infusion 700 mg/kg/hour): 574-653%
- time to maximal increase of CNS microdialysate inosine ([1]; i.v. infusion 700 mg/kg/hr): ≤ 45 min
- inosine levels above background ([1]; rats, i.v., 160-200 mg/kg/2 hrs): approximately 170%
- inosine levels above background ([1]; rats, i.v., 480-600 mg/kg/2 hrs): approximately 170%
- interstitial inosine as compared with the baseline/predose concentrations ([1]; rats, i.v., about 800 to 1000 mg/kg over about two hours (Formulation 80 diluted to 50 mg/mL)): approximately 500%
- neurological deficit (stroke; Example 6: intravenous infusion): Amelioration of the neurological deficit
- neurological deficit (stroke; Example 10: subcutaneous injection): Amelioration of the neurological deficit
- inosine solubility ([2]; high pH environments): greatly enhanced
- inosine solubility ([2]; higher concentrations of saline solutions): reduced solubility
- neurological deficit (traumatic brain injury; Example 8: intravenous infusion): Amelioration of the neurological deficit
- neurological deficit (traumatic brain injury; Example 12: subcutaneous injection): Amelioration of the neurological deficit
- clearance ([3]; i.v. infusion 300 mg/kg/hour): 218 mL/min/kg
- clearance ([3]; i.v. infusion 500 mg/kg/hour): 257 mL/min/kg
- Plasma inosine concentration, maximal value ([3]; i.v. infusion 100 mg/kg/hr): ≤ 7.2 µg/mL
- Steady-state mean plasma inosine level ([3]; i.v. infusion 300 mg/kg/hour): 22.8 µg/mL
- Plasma inosine concentration, maximal value ([3]; i.v. infusion 300 mg/kg/hr): ≤ 26 µg/mL
- Steady-state mean plasma inosine level ([3]; i.v. infusion 500 mg/kg/hour): 32.4 µg/mL
- Plasma inosine concentration, maximal value ([3]; i.v. infusion 500 mg/kg/hr): ≤ 45 µg/mL
- Plasma inosine concentration, maximal value ([3]; i.v. infusion 700 mg/kg/hr): ≤ 146 µg/mL
- inosine plasma levels ([3]; rats, i.v., about 800 to 1000 mg/kg over about two hours): significant rise
- neurological deficit (spinal cord injury; Example 7: intravenous infusion): Amelioration of the neurological deficit
- neurological deficit (spinal cord injury; Example 11: subcutaneous injection): Amelioration of the neurological deficit
- neurological deficit ([4]; Example 5: intravenous infusion, inosine (50 mM) and NaCl (0.15M), 1 g/kg/day): Amelioration of the neurological deficit
- neurological deficit ([4]; Example 9: subcutaneous injection, inosine (50 mM) and NaCl (0.15M), 1 g/kg/day): Amelioration of the neurological deficit
- neurological deficit ([4]; Example 13: intravenous infusion, 0.1% sodium bicarbonate 70 mg/mL inosine pH9.2, 250 ml over two hours, 14 days): Amelioration of the neurological deficit
- functional outcome ([5]; continuous i.v. infusion, four weeks, P<0.01 weeks one and two, P<0.001 weeks three and four vs. vehicle): improves functional outcome; also recorded: continual or sustained improvement
- BBB scores ([5]; three to four weeks post-SCI, continuous i.v. infusion 70 mg/mL, maximal score 21): near maximal possible values
